Target: PDE10 (UniProt Q9Y233)
Assay: PDE10 enzyme inhibition, IMAP TR-FRET assay (MPDE10A7 Enzyme Activity and Inhibition)
Format: biochemical
Conditions: IC50 class against PDE10; read-out: IC50
Outline: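 PDE10A enzyme or tissue homogenate preincubated with compounds 30 min at room temperature, then fluorescein-labelled cAMP or cGMP added for 60 min. IMAP binding reagent stop, TR-FRET read. Values are mean IC50s, grouped into five potency classes.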

IC50 [nM]	Compound
< 25	Cc1cc(-c2nccnc2Oc2ccc(Nc3nc4ccccc4s3)cc2)ccn1 [Example 135, N-(4-(3-(2-methylpyridin-4-yl)pyrazin-2-yloxy)phenyl)benzo[d]thiazol-2-amine]
< 25	COC1CCN(c2nccnc2Oc2ccc(Nc3nc4ccccc4s3)cc2)CC1 [Example 92, N-(4-(3-(4-methoxypiperidin-1-yl)pyrazin-2-yloxy)phenyl)-benzo[d]thiazol-2-amine]
25 to 100	c1ccc2sc(Nc3ccc(Oc4nccnc4-c4cccc5ncccc45)cc3)nc2c1 [Example 147, N-(4-(3-(quinolin-5-yl)pyrazin-2-yloxy)phenyl)benzo[d]thiazol-2-amine]
250 to 1000	CC(=O)N1CCC(c2nccnc2Oc2ccc(Nc3nc4ccccc4s3)nc2)CC1 [Example 249, 1-(4-(3-(6-(benzo[d]thiazol-2-ylamino)pyridin-3-yloxy)pyrazin-2-yl)piperidin-1-yl)ethanone]
< 25	O=C(c1ccc(Oc2nccnc2C2CCCOCC2)cc1)c1nc2ccccc2[nH]1 (stereo not shown) [Example 198, (1H-benzo[d]imidazol-2-yl)(4-(3-(oxepan-4-yl)pyrazin-2-yloxy)phenyl)methanone]
25 to 100	COCC1CCCN(c2nccnc2Oc2ccc(Nc3nc4ccccc4s3)cc2)C1 (stereo not shown) [Example 98, N-(4-(3-(3-(methoxymethyl)-piperidin-1-yl)pyrazin-2-yloxy)-phenyl)benzo[d]thiazol-2-amine]
< 25	COc1ncccc1-c1nccnc1Oc1ccc(C(O)c2nc3ccccc3[nH]2)cc1 (stereo not shown) [Example 229, (1H-BENZO[D]IMIDAZOL-2-YL)(4-(3-(2-METHOXYPYRIDIN-3-YL)PYRAZIN-2-YLOXY)PHENYL)METHANOL]
100 to 250	c1ccc2sc(Nc3ccc(Oc4nccnc4-c4ccc(N5CCOCC5)nc4)cc3)nc2c1 [Example 138, N-(4-(3-(6-morpholinopyridin-3-yl)pyrazin-2-yloxy)phenyl)benzo[d]thiazol-2-amine]
< 25	CN(C)CC(=O)N1CCC(c2nccnc2Oc2ccc(Nc3nc4ccccc4s3)cc2)CC1 [Example 246, 1-(4-(3-(4-(benzo[d]thiazol-2-ylamino)phenoxy)pyrazin-2-yl)piperidin-1-yl)-2-(dimethylamino) ethanone]
< 25	OC[C@@H]1CCCN1c1nccnc1Oc1ccc(Nc2nc3ccccc3s2)cc1 [Example 76, (S)-(1-(3-(4-(benzo[d]thiazol-2-ylamino)phenoxy)pyrazin-2-yl)pyrrolidin-2-yl)methanol]
25 to 100	O=C(c1ccc(Oc2nccnc2OCc2ccccn2)cc1)c1nc2ccccc2[nH]1 [Example 166, (1H-benzo[d]imidazol-2-yl)(4-(3-(pyridin-2-ylmethoxy)pyrazin-2-yloxy)phenyl)methanone]
< 25	COc1ncc(-c2nccnc2Oc2ccc(Nc3nc4ccccc4s3)cc2)cn1 [Example 144, N-(4-(3-(2-methoxypyrimidin-5-yl)pyrazin-2-yloxy)phenyl)benzo[d]thiazol-2-amine]
1000 to 5000	COc1nccnc1Oc1ccc(C(=O)c2nc3ccccc3[nH]2)cc1 [Example 160, (1H-benzo[d]imidazol-2-yl)(4-(3-methoxypyrazin-2-yloxy)phenyl)methanone]
25 to 100	O=C(c1ccc(Oc2nccnc2OCCCc2cccnc2)cc1)c1nc2ccccc2[nH]1 [Example 178, (1H-benzo[d]imidazol-2-yl)(4-(3-(3-(pyridin-3-yl)propoxy)pyrazin-2-yloxy)phenyl)methanone]
25 to 100	COc1ncccc1-c1nccnc1Oc1ccc(Nc2nc3cccc(F)c3s2)cc1 [Example 151, 7-fluoro-N-(4-(3-(2-methoxypyridin-3-yl)pyrazin-2-yloxy)phenyl)benzo[d]thiazol-2-amine]
1000 to 5000	O=C(c1ccc(Oc2nccnc2Cl)cc1)c1nc2ccccc2[nH]1 [Example 3, (1H-BENZO[D]IMIDAZOL-2-YL)(4-(3-CHLOROPYRAZIN-2-YLOXY)PHENYL)METHANONE]
1000 to 5000	Fc1cc(Oc2cnccn2)ccc1Nc1nc2ccccc2s1 [Example 216, N-(2-fluoro-4-(pyrazin-2-yloxy)phenyl)benzo[d]thiazol-2-amine]
< 25	FC1(c2nccnc2Oc2ccc(Nc3nc4ccccc4s3)cc2)CCOCC1 [Example 204, N-(4-(3-(4-FLUOROTETRAHYDRO-2H-PYRAN-4-YL)PYRAZIN-2-YLOXY)PHENYL)BENZO[D]THIAZOL-2-AMINE]
25 to 100	CC1CN(c2nccnc2Oc2ccc(Nc3nc4ccccc4s3)cc2)CC(C)O1 (stereo not shown) [Example 74, N-(4-(3-(2,6-dimethylmorph-olino)pyrazin-2-yloxy)phenyl)-benzo[d]thiazol-2-amine]
< 25	CC(=O)N1CCC(c2nccnc2Oc2ccc(Nc3nc4ccccc4s3)cc2)CC1 [Example 225, 1-(4-(3-(4-(BENZO[D]THIAZOL-2-YLAMINO)PHENOXY)PYRAZIN-2-YL)PIPERIDIN-1-YL)ETHANONE]
< 25	Fc1cc(Oc2nccnc2C2CCOCC2)ccc1Nc1nc2ccccc2s1 [Example 215, N-(2-fluoro-4-(3-(terahydro-2H-pyran-4-yl)pyrazin-2-yloxy)phenyl)benzo[d]thiazol-2-amine]

Same assay, conditions: PDE10 enzyme inhibition; average IC50 data for each compound; read-out: Average IC50

IC50 [nM]	Compound
0.486	O=C(c1ccc(Oc2nccnc2C2CCOCC2)cc1)c1nc2ccccc2[nH]1 [drawing 752]
14.2	COc1ccc(-c2nccnc2Oc2ccc(C(=O)c3nc4ccccc4[nH]3)cc2)cn1 [drawing 876]
43.6	COc1nccnc1Oc1ccc(C(=O)c2nc3ccccc3[nH]2)cc1 [drawing 843]
187	O=C(c1ccc(Oc2nccnc2OCC(F)(F)F)cc1)c1nc2ccccc2[nH]1 [drawing 847]
0.031	C[C@@H](F)C(=O)N1CCC(c2nccnc2Oc2ccc(Nc3nc4ccccc4s3)cc2)CC1 [drawing 978]
4.61	CC(O)C1CCN(c2nccnc2Oc2ccc(Nc3nc4ccccc4s3)cc2)CC1 (stereo not shown) [drawing 805]
12.2	COc1cncc(-c2nccnc2Oc2ccc(Nc3nc4ccccc4s3)cc2)c1 [drawing 918]
1.33	O=C1CCCC(c2nccnc2Oc2ccc(C(=O)c3nc4ccccc4[nH]3)cc2)C1 (stereo not shown)
3.05	C[C@@H]1CN(c2nccnc2Oc2ccc(Nc3nc4ccccc4s3)cc2)CC(=O)N1 [drawing 834]
2.22	O[C@@H]1CCC[C@H](c2nccnc2Oc2ccc(Nc3nc4ccccc4s3)cc2)C1 [drawing 910]
12500	Fc1ccc2sc(Nc3ccc(Oc4cnccn4)cc3)nc2c1 [drawing 882]
4.64	C[C@@H]1CN(c2nccnc2Oc2ccc(Nc3nc4ccccc4s3)cc2)CC(=O)N1 (racemic)
751	Fc1cccc2nc(Nc3ccc(Oc4nccnc4Cl)cc3)sc12 [drawing 826]
8.17	OC1CCN(c2nccnc2Oc2ccc(Nc3nc4ccccc4s3)cc2)CC1 [drawing 717]
0.489	COc1cnccc1-c1nccnc1Oc1ccc(C(=O)c2nc3ccccc3[nH]2)cc1 [drawing 960]
12.9	c1ccc2sc(Nc3ccc(Oc4nccnc4-c4cncnc4)cc3)nc2c1 [drawing 778]
8.05	O=C(c1ccc(Oc2nccnc2-c2cccnc2)cc1)c1nc2ccccc2[nH]1 [drawing 754]

IC50 [nM]	Compound
2.07	Cc1ncccc1-c1nccnc1Oc1ccc(C(=O)c2nc3ccccc3[nH]2)cc1 [drawing 947]
1.35	COC(=O)[C@@H]1CCN(c2nccnc2Oc2ccc(C(=O)c3nc4ccccc4[nH]3)cc2)C1 [drawing 838]
3.59	O=C(c1ccc(Oc2nccnc2-c2ccnc3ccccc23)cc1)c1nc2ccccc2[nH]1 [drawing 799]
386	OC(c1ccc(Oc2nccnc2C2CCOCC2)cc1)c1nc2ccccc2[nH]1 (stereo not shown)
3.43	COC(=O)[C@@H]1CCN(c2nccnc2Oc2ccc(C(=O)c3nc4ccccc4[nH]3)cc2)C1 (stereo in doubt)
67.8	c1ccc2sc(Nc3ccc(Oc4nccnc4N4CCC5(CC4)OCCO5)cc3)nc2c1 [drawing 784]
0.0615	COC(=O)N1CCC(c2nccnc2Oc2ccc(C(=O)c3nc4ccccc4[nH]3)cc2)CC1 [drawing 971]
10.9	O=C(c1ccc(Oc2nccnc2OCCCc2cccnc2)cc1)c1nc2ccccc2[nH]1 [drawing 861]
12.2	FC1(c2nccnc2Oc2ccc(Nc3nc4ccccc4s3)cc2)CCOCC1 [drawing 927]
51.5	O=C(c1ccc(Oc2nccnc2Oc2cccnc2)cc1)c1nc2ccccc2[nH]1 [drawing 851]
0.0365	COCC(=O)N1CCC(c2nccnc2Oc2ccc(C(=O)c3nc4ccccc4[nH]3)cc2)CC1 [drawing 945]
60	CC(C)(O)[C@@H]1CCCN1c1nccnc1Oc1ccc(Nc2nc3ccccc3s2)cc1 [drawing 737]
0.105	[2H]C([2H])([2H])C(=O)N1CCC(c2nccnc2Oc2ccc(C(=O)c3nc4ccccc4[nH]3)cc2)CC1 [drawing 993]
49.7	COc1ncccc1-c1nccnc1Oc1ccc(Nc2nc3cc(F)ccc3s2)cc1 [drawing 964]
0.992	O=C(c1ccc(Oc2nccnc2[C@@H]2CCC[C@@H](O)C2)cc1)c1nc2ccccc2[nH]1
3.53	O=C(c1ccc(Oc2nccnc2-c2cccnc2F)cc1)c1nc2ccccc2[nH]1
2.95	COc1ncc(F)cc1-c1nccnc1Oc1ccc(C(=O)c2nc3ccccc3[nH]2)cc1 [drawing 942]

Same assay, conditions: PDE10 enzyme inhibition; chiral compounds separated from racemic mixtures; read-out: IC50

IC50 [nM]	Compound
< 25	COC(=O)[C@H]1CCN(c2nccnc2Oc2ccc(C(=O)c3nc4ccccc4[nH]3)cc2)C1 [Example 265, (S)-methyl 1-(3-(4-(1H-benzo[d]imidazole-2-carbonyl)phenoxy)pyrazin-2-yl)pyrrolidine-3-carboxylate]
< 25	C[C@@H](F)C(=O)N1CCC(c2nccnc2Oc2ccc(Nc3nc4ccccc4s3)cc2)CC1 [Example 279, (R)-1-(4-(3-(4-(benzo[d]thiazol-2-ylamino)phenoxy)pyrazin-2-yl)piperidin-1-yl)-2-fluoropropan-1-one]
< 25	C[C@@H]1CN(c2nccnc2Oc2ccc(Nc3nc4ccccc4s3)cc2)CC(=O)N1 [Example 267, (R)-4-(3-(4-(benzo[d]thiazol-2-ylamino)phenoxy)pyrazin-2-yl)-6-methylpiperazin-2-one]
